Assay results: US20050020654A1, “Novel PPAR agonists, pharmaceutical compositions and uses thereof” (priority 2003, published 2005)
Where two headings read alike, the source gives them in different places. Blank lines part the entries; values can stand above or below the compound they belong to.

How the values were obtained:
[1] = biological target: T1, PPARγ (Homo sapiens, UniProt P37231); assay: PPARγ transactivation assay (luciferase reporter) in transfected CV-1 cells; format: cell-based
T1 construct: expressed in transfected cells; host or cells: CV-1 cells (ATCC CCL-70)
T1 sequence (P37231 1-505): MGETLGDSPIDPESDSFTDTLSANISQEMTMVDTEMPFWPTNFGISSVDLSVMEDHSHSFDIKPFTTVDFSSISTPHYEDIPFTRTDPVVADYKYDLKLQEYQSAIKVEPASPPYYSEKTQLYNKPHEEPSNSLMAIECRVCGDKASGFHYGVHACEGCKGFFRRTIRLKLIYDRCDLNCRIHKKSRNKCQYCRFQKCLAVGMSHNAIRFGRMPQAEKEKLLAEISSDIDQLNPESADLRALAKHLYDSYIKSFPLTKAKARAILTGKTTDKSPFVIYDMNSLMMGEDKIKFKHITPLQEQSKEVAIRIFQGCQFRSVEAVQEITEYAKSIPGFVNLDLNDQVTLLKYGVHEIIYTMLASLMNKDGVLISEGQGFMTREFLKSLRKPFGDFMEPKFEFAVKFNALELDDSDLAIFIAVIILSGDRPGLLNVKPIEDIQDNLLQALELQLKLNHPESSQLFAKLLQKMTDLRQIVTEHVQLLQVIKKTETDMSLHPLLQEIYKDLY
Protocol: PPARγ activity was determined by transactivation assays in CV-1 cells (CCL-70 line from American Type Culture Collection (ATCC), Bethesda, Md.) transfected using the GenePorter transfection reagent (Gene Therapy Systems, San Diego, Calif.) to deliver 200 ng of a PPARγ expression plasmid and 1 μg of a luciferase reporter plasmid and 400 ng pCMVSport b-gal (Gibco, Grand Island, N.J.) as an internal control. 24 hr post-transfection, cells were treated with varying concentrations of the test compounds of this invention, and incubated for an additional 24 hr. Rosiglitazone and pioglitazone, a known PPARγ full agonist, and telmisartan, a known ARB and PPARγ partial agonist (Benson et al. Hypertension (2004) in press) are used as controls. Cell extracts were assayed for luciferase and β-galactosidase activity using Promega (Madison, Wis.) assay systems. All treatments were performed in triplicate, and normalized for β-galactosidase activity. Agonist concentrations yielding half maximal activation (EC50 values) were calculated using GraphPad Prism version 3.03 (GraphPad Software, Inc., San Diego, Calif.).

[2] = biological target: T1, PPARγ; conditions: Benson et al. Hypertension (2004) in press; cited from earlier work
[3] = format: in vivo, human
Protocol: A person with hypertension, hypertriglyceridemia, and type 2 diabetes was selected for therapy. […] The patient is taking another medication for type 2 diabetes but the dose of this medication is held constant throughout the trial. The patient is given telmisartan at an oral dose of 80 mg/day. […] The oral dose of telmisartan (Micardis®) is then increased to 160 mg/day. […] The telmisartan (Micardis®) therapy is continued according to the judgment of the clinician in order to maintain the improved control of the patient's blood pressure and their type 2 diabetes.

[4] = format: in vivo
Protocol: An obese person (BMI: 34.4 kg/m2, waist circumference: 51 inches) with untreated hypertension, pre-diabetes and the metabolic syndrome was given telmisartan (Micardis®), 80 mg/day, for treatment of high blood pressure. […] The patient has the metabolic syndrome as defined by the National Cholesterol Education Program (NCEP). The metabolic syndrome is associated with a 5-9 fold increase in the risk for developing type 2 diabetes and a 2-3 fold increase risk in cardiovascular mortality. […] After 5 weeks on valsartan (week 15), their glucose, insulin, triglyceride levels, and HOMA-IR score increased, consistent with a reversal in the improved insulin resistance obtained with telmisartan (Table 1). Valsartan was discontinued and they were switched back to telmisartan.

[5] = oral 80 mg/day, after three weeks
[6] = oral 160 mg/day, after seven weeks

Compound: CCCc1nc2c(C)cc(Br)cc2n1CCOc1ccc(CC2SC(=O)NC2=O)cc1C(=O)O (stereo not drawn) [2-(2-(6-Bromo-4-methyl-2-propyl-1H-benzo[d]imidazol-1-yl)ethoxy)-5-((2,4-dioxothiazolidin-5-yl)methyl)benzoic acid]
- PPAR-γ Fold activation ([1]; @ 0.1 uM): 3.8 x
- PPAR-γ Fold activation ([1]; @ 1 μM): 10 x
- PPAR-γ Fold activation ([1]; @ 10 μM): 15.5 x
- PPAR-γ Fold activation ([1]; @ .01 uM): 1.7 x

Compound: CCCCC1=NC2(CCCC2)C(=O)N1Cc1ccc(-c2ccccc2-c2nnn[nH]2)cc1 [Irbesartan, reference compound]
- PPARγ activation [1]: 2-3 fold

Compound: COC(=O)c1cc(CC2SC(=O)NC2=O)ccc1OCCn1c(CCCCC2CCCCC2)nc2ccccc21 (stereo not drawn) [Methyl 2-(2-(2-(4-cyclohexylbutyl)-1H-benzo[d]imidazol-1-yl)ethoxy)-5-((2,4-dioxothiazolidin-5-yl)methyl)benzoate]
- PPAR-γ Fold activation ([1]; @ 0.1 uM): 2 x
- PPAR-γ Fold activation ([1]; @ 1 μM): 24 x
- PPAR-γ Fold activation ([1]; @ 10 μM): 34 x
- PPAR-γ Fold activation ([1]; @ .01 uM): 1 x

Compound: CCCc1nc2c(C)cc(-c3nc4ccccc4n3C)cc2n1Cc1ccc(-c2ccccc2C(=O)O)cc1 [telmisartan]
- activation of the receptor relative to maximum level of activity achieved by the full agonists pioglitazone and rosiglitazone [1]: 25%-30%
- PPARγ activation ([1]; tested at concentrations 1-5 mM): 5-8 fold
- activation of PPARγ [2]: has been shown to activate PPARγ
- HDL cholesterol [3, 5]: 50 mg/dL
- blood pressure [3, 5]: 143/91
- fasting glucose [3, 5]: 188 mg/dL
- triglyceride [3, 5]: 281 mg/dL
- HDL cholesterol [3, 6]: 60 mg/dL
- blood pressure [3, 6]: 131/81
- glucose level [3, 6]: 145 mg/dL
- triglyceride level [3, 6]: 178 mg/dL
- blood pressure ([4]; 80 mg/day, throughout the observation period): normalized and remained normal
- blood glucose, insulin and triglyceride concentrations ([4]; 80 mg/day, up to week 10): progressively decreased
- insulin resistance, HOMA-IR score ([4]; 80 mg/day, up to week 10): improvement in insulin resistance
- fluid retention, peripheral edema, pulmonary edema, or congestive heart failure on clinical examination ([4]; human, in vivo): no evidence of any increase
- insulin resistance and triglycerides ([4]; switched back from valsartan, following 4 weeks (week 19)): again improved

Compound: CCCCC(=O)N(Cc1ccc(-c2ccccc2-c2nnn[nH]2)cc1)[C@H](C(=O)O)C(C)C [valsartan]
- activation of PPARγ [2]: does not activate PPARγ
- glucose, insulin, triglyceride levels, and HOMA-IR score ([4]; 160 mg/day, after 5 weeks (week 15), after switch from telmisartan): increased

Results, then the compound that gave them:

- PPAR-γ Fold activation ([1]; @ 0.1 uM): 3.1 x
- PPAR-γ Fold activation ([1]; @ 1 μM): 32 x
- PPAR-γ Fold activation ([1]; @ 10 μM): 41 x
- PPAR-γ Fold activation ([1]; @ .01 uM): 1 x
Compound: CCCc1nc2c(C)cc(Br)cc2n1CCOc1ccc(CC2SC(=O)NC2=O)cc1C(=O)OC (stereo not drawn) [Methyl 2-(2-(6-bromo-4-methyl-2-propyl-1H-benzo[d]imidazol-1-yl)ethoxy)-5-((2,4-dioxothiazolidin-5-yl)methyl)benzoate]

- PPAR-γ Fold activation ([1]; concentration not given): No activity
Compound: CCCc1nc2c(C)cc(-c3nc4ccccc4n3C)cc2n1Cc1ccc(-c2ccc(C(=O)O)cc2C(=O)O)cc1 [averysartan]

- PPAR-γ Fold activation ([1]; @ 0.1 uM): 1 x
- PPAR-γ Fold activation ([1]; @ 1 μM): 5 x
- PPAR-γ Fold activation ([1]; @ 5 uM): 9 x
- PPAR-γ Fold activation ([1]; @ 10 μM): 11 x
Compound: CCCc1nc2c(C)cc(-c3nc4ccccc4n3C)cc2n1Cc1ccc(-c2ccc(C(=O)OC)cc2C(=O)OC)cc1 [proaverysartan]

- PPAR-γ Fold activation ([1]; @ 0.1 uM): 1.2 x
- PPAR-γ Fold activation ([1]; @ 1 μM): 6.1 x
- PPAR-γ Fold activation ([1]; @ 10 μM): 7.4 x
Compound: Methyl 5-((2,4-dioxothiazolidin-5-yl)methyl)-2-(2-(4-methyl-6-phenyl-2-propyl-1H-benzo[d]imidazol-1-yl)ethoxy)benzoate
